According to US20240285514A1, “EXTRACTS OF EUTERPE OLERACEA, METHODS OF MAKING, AND USES THEREOF” (Naturesphix Limited, priority 2021, published 2024):

Tests used:
MMP-1 enzyme = molecular target: T1, MMP-1 enzyme (Homo sapiens, UniProt P03956); assay: Metalloproteinase-1 (MMP-1) enzyme activity; assay type: biochemical
T1 sequence (P03956 100-469): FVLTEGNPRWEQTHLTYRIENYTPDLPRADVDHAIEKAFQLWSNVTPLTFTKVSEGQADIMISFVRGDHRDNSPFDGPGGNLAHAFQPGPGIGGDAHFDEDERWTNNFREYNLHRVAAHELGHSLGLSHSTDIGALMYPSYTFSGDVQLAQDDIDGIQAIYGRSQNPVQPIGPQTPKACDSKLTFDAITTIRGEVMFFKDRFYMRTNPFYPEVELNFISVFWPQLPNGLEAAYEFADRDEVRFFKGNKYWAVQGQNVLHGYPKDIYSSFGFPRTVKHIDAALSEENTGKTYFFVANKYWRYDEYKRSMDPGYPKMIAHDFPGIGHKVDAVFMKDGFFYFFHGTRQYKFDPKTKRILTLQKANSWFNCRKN
Procedure: The MMP-1 enzyme was evaluated after incubation with the Vehicle (0.04% DMSO), ST-035 (10 μg/mL), Ascorbic acid Reference Substance (10 μg/mL), Ferulic acid Reference Substance (4 μg/mL) or positive control of the test, GM6001, a MMP-1 enzyme activity inhibitor. The bars represent the mean±standard error of the mean of 1 assay performed in triplicate. The percentage of inhibition was calculated in relation to the Vehicle group. For the statistical analysis a one-way analysis of variance (ANOVA) was used, followed by the Newman-Keuls test (*p<0.05 in comparison to Vehicle group).

[1] = tested on: reconstructed human tissue model; assay: Skin irritation assay, reconstructed human epidermis (OECD TG439); assay type: cell-based; conditions: 42 minutes treatment; three tissues
Procedure: The possible irritant action of ST-035 on a reconstructed human tissue model, as described in the OECD Guidelines for the Testing of Chemicals, Section 4, TG439 In Vitro Skin Irritation: Reconstructed Human Epidermis Test Method was evaluated. After receiving the tissues, they were readapted in growth medium overnight until the Treatment moment. After the readaptation, Negative Control, positive control (Reference Substance) or Test Substance were added in a 16 μL volume on the epidermis and maintained for 42 minutes (±1 minute). Following, each tissue went through a 25-phosphate buffer washing process to remove the Treatments. Subsequently, the epidermis was maintained for 42 hours (±1 hour) in growth medium in a CO2 incubator (5±0.1%) at 37±0.1° C. After this period, the tissues were incubated for 3 hours (±15 minutes) with a 1 mg/mL MTT solution and then 2 hours with isopropanol for the formazan complex extraction. Then, 200 μL of each well (in duplicate) were transferred to a 96-well plate for absorbance reading at 570 nm.
Skin irritation assay in a reconstructed human skin model is an alternative method that follows the OECD TG439 standards and is validated by international centers, with international regulatory acceptance. […]

human keratinocytes [2] = assay: Scavenger activity against UVB radiation, section headed 'in Fibroblasts' (FIG. 14); assay type: cell-based; conditions: 10 μg/mL added immediately prior to UVB 90 mJ/cm2; vs vehicle+UVB
Procedure: (§1) The 2′,7′ dichlorofluorescein diacetate (nonfluorescent) is de-esterified intracellularly and becomes a 2′,7′ highly fluorescent dichlorofluorescein after oxidation. Fluorescence detection was performed at 485 nm excitation wavelength and 535 nm emission wavelength in SpectraMax i3x (Molecular Devices) equipment. […] The concentrations of the Test Substance (10 μg/mL), Ascorbic acid Reference Substance (10 μg/mL) and Ferulic acid Reference Substance (4 μg/mL) were prepared according to the description above (Test Substance, Reference Substances and Vehicle Preparation).

human keratinocytes [3] = assay: Scavenger potential against UVB radiation in keratinocytes (DCFH-DA probe); assay type: cell-based; conditions: 10 μg/mL added immediately prior to UVB 90 mJ/cm^2; vs vehicle+UVB
Procedure: as §1

human keratinocytes [4] = assay: Antioxidant potential against UVB radiation in keratinocytes (24 h pre-treatment, DCFH-DA probe); assay type: cell-based; conditions: 10 μg/mL; incubation 24 hours before UVB 90 mJ/cm^2; vs vehicle+UVB
Procedure: as §1

human keratinocytes [5] = assay: Intrinsic antioxidant activity (basal EROs production) with DCFH-DA probe in keratinocytes; assay type: cell-based; conditions: no UVB, vs vehicle
Procedure: as §1, with “Preparation). The intrinsic antioxidant activity of Test Substance in human keratinocytes was evaluated as follows. […] Subsequently, the production of EROs was evaluated through the microplate reader (485/535 nm). Two different assays were performed in triplicate. For the statistical analysis, one-way analysis of variance (ANOVA) was used, followed by the Newman-Keuls test (*p<0.05 in comparison to Vehicle group).” for “Preparation).”

human fibroblasts = assay: Antioxidant potential against UVB in human fibroblasts (DCFH-DA probe); assay type: cell-based; conditions: pre-incubation before UVB 90 mJ/cm^2, vs vehicle+UVB
Procedure: as §1, with “Preparation). The human fibroblasts were incubated with a DCFH-DA probe (50 μM) for 30 minutes. After this period, the fibroblasts were incubated. For statistical analysis, one-way variance analysis (ANOVA) was used, followed by Newman-Keuls test (#p<0.05 compared to Vehicle group and *p<0.05 compared to Vehicle+UVB 90 mJ/cm^2).” for “Preparation).”

tyrosinase = assay: Tyrosinase enzyme activity; assay type: biochemical
Procedure: After that, 170 μL of L-tyrosine substrate 1 mM, solubilized in a potassium phosphate buffer 50 mM (pH 6.5) were added. After the incubation period of 30 to 40 minutes, the plate was read at 490 nm.
For the statistical analysis one-way analysis of variance (ANOVA) was used, followed by the Newman-Keuls test (*p<0.05 in comparison to the Vehicle group). The percentage of inhibition was calculated in relation to the Vehicle group.

CNC(=O)[C@H](Cc1c[nH]c2ccccc12)NC(=O)[C@@H](CC(=O)NO)CC(C)C [GM6001]
reduction of MMP-1 activity (MMP-1 enzyme; 1 μM, assay validation): 81.3±1.5%

CCCCCCCCCCCCOS(=O)(=O)[O-].[Na+] [SDS, sodium dodecylsulfate]
tissue viability mean (absorbance at 570 nm) [1]: 0.018±0.001

O=C1O[C@H]([C@@H](O)CO)C(O)=C1O [ascorbic acid]
inhibition at 10 µg/mL (MMP-1 enzyme; 10 μg/mL, vs vehicle): 9.2 ± 1.5% | reduction of UVB induced production of EROs (scavenger potential, FIG. 14) (human keratinocytes [2]): 46.2±2.0% | reduction of UVB induced production of EROs (scavenger potential) (human keratinocytes [3]): 46.2±2.0% | decrease of production of EROs after UVB (antioxidant capacity) (human keratinocytes [4]): 44.3±11.4% | reduction of basal production of EROs (human keratinocytes [5]; 10 μg/mL, 4 hours): did not change | reduction of basal production of EROs (human keratinocytes [5]; 10 μg/mL, 24 hours): did not change | reduction of production of reactive oxygen species (antioxidant potential) (human fibroblasts; 10 μg/mL): 30.5±6.2%

COc1cc(/C=C/C(=O)O)ccc1O [ferulic acid]
change of MMP-1 activity in vitro (MMP-1 enzyme; 4 μg/mL, vs vehicle): did not change | reduction of basal production of EROs (human keratinocytes [5]; 4 μg/mL, 4 hours): 26.8±2.4% | reduction of basal production of EROs (human keratinocytes [5]; 4 μg/mL, 24 hours): 45.8±6.6% | reduction of production of reactive oxygen species (antioxidant potential) (human fibroblasts; 4 μg/mL): 47.4±0.5%

O=c1cc(CO)occ1O [kojic acid]
reduction of tyrosinase enzyme activity (tyrosinase; 300 μg/mL): 43% | reduction of tyrosinase enzyme activity (tyrosinase; 1,000 μg/mL): 84%
